ChEMBL document CHEMBL2401637, “The identification of novel p38α isoform selective kinase inhibitors having an unprecedented p38α binding mode” (Bioorg Med Chem Lett, 2013)

Assay: Aqueous solubility of the compound at pH 6.5
Assay type: physicochemical

| solubility [µg/mL] | SMILES |
| --- | --- |
| < 1 | Cc1ccc(C(=O)NC2CC2)cc1NC(=O)c1ccc(-c2ccc(Cl)cc2)s1 |
| < 1 | Cc1ccc(C(=O)NC2CC2)cc1NC(=O)c1ccc(-c2ccccc2Cl)s1 |
| < 1 | Cc1ccc(C(=O)NC2CC2)cc1NC(=O)c1ccc(-c2cccc(Cl)c2)s1 |
